Assay results: ChEMBL document CHEMBL3885881, “DrugMatrix”

Species: Rattus norvegicus
Assay: DrugMatrix - Regimen: Daily Repeat
Assay type: toxicity, organism-based, Sprague-Dawley
Parameters: regimen Daily Repeat, gender Male, age 6-8 weeks
Details: in vivo, po, route oral GAVAGE, vehicle 100 % WATER; for ABSOLUTE BASOPHIL / ABSOLUTE EOSINOPHIL / ABSOLUTE LYMPHOCYTE / ABSOLUTE MONOCYTE / ABSOLUTE SEGMENTED NEUTROPHIL / BASOPHIL / EOSINOPHIL / ERYTHROCYTE COUNT / HEMATOCRIT / HEMOGLOBIN / LEUKOCYTE COUNT / LYMPHOCYTE / MEAN CORPUSCULAR HEMOGLOBIN / MEAN CORPUSCULAR HEMOGLOBIN CONCENTRATION / MEAN CORPUSCULAR VOLUME / MONOCYTE / NEUTROPHIL / NUCLEATED RED BLOOD CELLS / PLATELET COUNT: tissue Blood; for ALANINE AMINOTRANSFERASE / ALBUMIN / ALKALINE PHOSPHATASE / ASPARTATE AMINOTRANSFERASE / BLOOD UREA NITROGEN / CARBON DIOXIDE / CHLORIDE / CHOLESTEROL / CREATINE PHOSPHOKINASE / CREATININE / GLUCOSE / LACTATE DEHYDROGENASE / LIPASE / PHOSPHORUS / POTASSIUM / SODIUM / TOTAL BILIRUBIN / TOTAL PROTEIN / URIC ACID: tissue Plasma
[1] = 2 mg/kg, 120 h, dose level Low, time 5 day
[2] = 184 mg/kg, 72 h, dose level High, time 3 day
[3] = 184 mg/kg, 120 h, dose level High, time 5 day

SMILES: C[C@]12C=CC(=O)C=C1CC[C@@H]1[C@@H]2[C@@H](O)C[C@@]2(C)[C@H]1CC[C@]2(O)C(=O)CO [PREDNISOLONE]
- ABSOLUTE BASOPHIL [1]: 0 CELLS/uL
- ABSOLUTE EOSINOPHIL [1]: 0 CELLS/uL
- ABSOLUTE LYMPHOCYTE [1]: 11293 CELLS/uL
- ABSOLUTE MONOCYTE [1]: 44.33 CELLS/uL
- ABSOLUTE SEGMENTED NEUTROPHIL [1]: 929.33 CELLS/uL
- BASOPHIL [1]: 0%
- EOSINOPHIL [1]: 0%
- ERYTHROCYTE COUNT [1]: 6.06 x10E6/uL
- HEMATOCRIT [1]: 36.67%
- HEMOGLOBIN [1]: 14.5 G/DL
- LEUKOCYTE COUNT [1]: 12.27 x10E3/uL
- LYMPHOCYTE [1]: 92.33%
- MEAN CORPUSCULAR HEMOGLOBIN [1]: 23.9 pg
- MEAN CORPUSCULAR HEMOGLOBIN CONCENTRATION [1]: 39.53 G/DL
- MEAN CORPUSCULAR VOLUME [1]: 60.53 fL
- MONOCYTE [1]: 0.33%
- NEUTROPHIL [1]: 7.33%
- NUCLEATED RED BLOOD CELLS [1]: 0.33 /100WBC
- PLATELET COUNT [1]: 1186.33 x10E3/uL
- ALANINE AMINOTRANSFERASE [1]: 41.33 u/L
- ALBUMIN [1]: 4.37 G/DL
- ALKALINE PHOSPHATASE [1]: 333.67 u/L
- ASPARTATE AMINOTRANSFERASE [1]: 88.67 u/L
- BLOOD UREA NITROGEN [1]: 16.33 mg/dL
- CARBON DIOXIDE [1]: 26.67 mmol/L
- CHLORIDE [1]: 101 MEQ/L
- CHOLESTEROL [1]: 55.33 mg/dL
- CREATINE PHOSPHOKINASE [1]: 433 u/L
- CREATININE [1]: 0.17 mg/dL
- GLUCOSE [1]: 143.33 mg/dL
- LACTATE DEHYDROGENASE [1]: 390.33 u/L
- LIPASE [1]: 9 u/L
- PHOSPHORUS [1]: 10.87 mg/dL
- POTASSIUM [1]: 5.88 MEQ/L
- SODIUM [1]: 142.2 MEQ/L
- TOTAL BILIRUBIN [1]: 0.23 mg/dL
- TOTAL PROTEIN [1]: 6.1 G/DL
- URIC ACID [1]: 1.87 mg/dL
- ABSOLUTE BASOPHIL [2]: 0 CELLS/uL
- ABSOLUTE EOSINOPHIL [2]: 0 CELLS/uL
- ABSOLUTE LYMPHOCYTE [2]: 4216.33 CELLS/uL
- ABSOLUTE MONOCYTE [2]: 85 CELLS/uL
- ABSOLUTE SEGMENTED NEUTROPHIL [2]: 2332 CELLS/uL
- BASOPHIL [2]: 0%
- EOSINOPHIL [2]: 0%
- ERYTHROCYTE COUNT [2]: 6.23 x10E6/uL
- HEMATOCRIT [2]: 38.3%
- HEMOGLOBIN [2]: 14.57 G/DL
- LEUKOCYTE COUNT [2]: 6.63 x10E3/uL
- LYMPHOCYTE [2]: 63.67%
- MEAN CORPUSCULAR HEMOGLOBIN [2]: 23.4 pg
- MEAN CORPUSCULAR HEMOGLOBIN CONCENTRATION [2]: 38.03 G/DL
- MEAN CORPUSCULAR VOLUME [2]: 61.47 fL
- MONOCYTE [2]: 1.33%
- NEUTROPHIL [2]: 35%
- NUCLEATED RED BLOOD CELLS [2]: 0 /100WBC
- PLATELET COUNT [2]: 1200 x10E3/uL
- ALANINE AMINOTRANSFERASE [2]: 57.33 u/L
- ALBUMIN [2]: 5.07 G/DL
- ALKALINE PHOSPHATASE [2]: 269.33 u/L
- ASPARTATE AMINOTRANSFERASE [2]: 67 u/L
- BLOOD UREA NITROGEN [2]: 18.67 mg/dL
- CARBON DIOXIDE [2]: 25 mmol/L
- CHLORIDE [2]: 99 MEQ/L
- CHOLESTEROL [2]: 84.33 mg/dL
- CREATINE PHOSPHOKINASE [2]: 258 u/L
- CREATININE [2]: 0.22 mg/dL
- GLUCOSE [2]: 170 mg/dL
- LACTATE DEHYDROGENASE [2]: 120.33 u/L
- LIPASE [2]: 12.33 u/L
- PHOSPHORUS [2]: 11.57 mg/dL
- POTASSIUM [2]: 5.92 MEQ/L
- SODIUM [2]: 142.73 MEQ/L
- TOTAL BILIRUBIN [2]: 0.17 mg/dL
- TOTAL PROTEIN [2]: 7.07 G/DL
- URIC ACID [2]: 2.57 mg/dL
- ABSOLUTE BASOPHIL [3]: 0 CELLS/uL
- ABSOLUTE EOSINOPHIL [3]: 20.33 CELLS/uL
- ABSOLUTE LYMPHOCYTE [3]: 3939 CELLS/uL
- ABSOLUTE MONOCYTE [3]: 40.67 CELLS/uL
- ABSOLUTE SEGMENTED NEUTROPHIL [3]: 2333.33 CELLS/uL
- BASOPHIL [3]: 0%
- EOSINOPHIL [3]: 0.33%
- ERYTHROCYTE COUNT [3]: 6.44 x10E6/uL
- HEMATOCRIT [3]: 38.23%
- HEMOGLOBIN [3]: 15.03 G/DL
- LEUKOCYTE COUNT [3]: 6.33 x10E3/uL
- LYMPHOCYTE [3]: 61.33%
- MEAN CORPUSCULAR HEMOGLOBIN [3]: 23.4 pg
- MEAN CORPUSCULAR HEMOGLOBIN CONCENTRATION [3]: 39.37 G/DL
- MEAN CORPUSCULAR VOLUME [3]: 59.4 fL
- MONOCYTE [3]: 0.67%
- NEUTROPHIL [3]: 37.67%
- NUCLEATED RED BLOOD CELLS [3]: 0.33 /100WBC
- PLATELET COUNT [3]: 1142.33 x10E3/uL
- ALANINE AMINOTRANSFERASE [3]: 78.33 u/L
- ALBUMIN [3]: 5.07 G/DL
- ALKALINE PHOSPHATASE [3]: 230.33 u/L
- ASPARTATE AMINOTRANSFERASE [3]: 90.33 u/L
- BLOOD UREA NITROGEN [3]: 18.67 mg/dL
- CARBON DIOXIDE [3]: 23.33 mmol/L
- CHLORIDE [3]: 100 MEQ/L
- CHOLESTEROL [3]: 63.67 mg/dL
- CREATINE PHOSPHOKINASE [3]: 788.33 u/L
- CREATININE [3]: 0.21 mg/dL
- GLUCOSE [3]: 184.67 mg/dL
- LACTATE DEHYDROGENASE [3]: 177.67 u/L
- LIPASE [3]: 11.67 u/L
- PHOSPHORUS [3]: 10.9 mg/dL
- POTASSIUM [3]: 5.41 MEQ/L
- SODIUM [3]: 145.27 MEQ/L
- TOTAL BILIRUBIN [3]: 0.23 mg/dL
- TOTAL PROTEIN [3]: 6.93 G/DL
- URIC ACID [3]: 1.27 mg/dL
